For this test, the system named is L1210 leukemia ip in BDF1 mice, survival T/C. As to the kind of experiment: NCI In Vivo Anticancer Drug Screen. Data for tumor model L1210 Leukemia (intraperitoneal) in B6D2F1 (BDF1) mice. Particulars: endpoint: mean survival time, higher = longer survival. The procedure, abridged:
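Tumor cells were implanted, animals were treated, and survival was followed. The result divides the treated measurement by the vehicle-control measurement.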

[1] abbreviates: dose: 15.0 mg/kg/injection, schedule: Q01DX Z (ip), vehicle: saline.
Setting [2] is: dose: 15.0 mg/kg/injection, schedule: Q01DX Z (oral), vehicle: saline.
Where [3] appears, read: dose: 30.0 mg/kg/injection, schedule: Q01DX Z (oral), vehicle: saline.
Where [4] appears, read: dose: 60.0 mg/kg/injection, schedule: Q01DX Z (oral), vehicle: saline.
Setting [5] is: dose: 100.0 mg/kg/injection, schedule: Q04DX002 (ip), vehicle: Klucel (hydroxypropylcellulose) (HPC).
[6] abbreviates: dose: 200.0 mg/kg/injection, schedule: Q04DX002 (ip), vehicle: Klucel (hydroxypropylcellulose) (HPC).
[7] abbreviates: dose: 400.0 mg/kg/injection, schedule: Q04DX002 (ip), vehicle: Klucel (hydroxypropylcellulose) (HPC).
[8] abbreviates: dose: 50.0 mg/kg/injection, schedule: Q04DX002 (ip), vehicle: Klucel (hydroxypropylcellulose) (HPC).
Setting [9] is: dose: 100.0 mg/kg/injection, schedule: Q01DX009 (ip), vehicle: Klucel (hydroxypropylcellulose) (HPC).
[10] abbreviates: dose: 200.0 mg/kg/injection, schedule: Q01DX009 (ip), vehicle: Klucel (hydroxypropylcellulose) (HPC).
Where [11] appears, read: dose: 400.0 mg/kg/injection, schedule: Q01DX009 (ip), vehicle: Klucel (hydroxypropylcellulose) (HPC).
Where [12] appears, read: dose: 100.0 mg/kg/injection, schedule: Q04DX003 (ip), vehicle: Klucel (hydroxypropylcellulose) (HPC).
[13] abbreviates: dose: 200.0 mg/kg/injection, schedule: Q04DX003 (ip), vehicle: Klucel (hydroxypropylcellulose) (HPC).
The mark [14] stands for this setting: dose: 25.0 mg/kg/injection, schedule: Q01DX009 (ip), vehicle: Klucel (hydroxypropylcellulose) (HPC).
[15] abbreviates: dose: 50.0 mg/kg/injection, schedule: Q01DX009 (ip), vehicle: Klucel (hydroxypropylcellulose) (HPC).

In PubChem BioAssay AID248 (DTP/NCI, 2004) one finds T/C data, which are given here for 17 compounds.

Where “and” joins values, the source holds several entries; their conditions need not be identical. Equal entries are not always repeated. Inconclusive results and toxic doses are left out.

`C=C(C)C12OC3(c4ccccc4)OC1C1C4OC4(CO)C(O)C4(O)C(=O)C(C)=CC4C1(O3)C(C)C2OC(=O)/C=C/C=C/c1ccccc1` (stereo not drawn): the T/C by setting is: (dose: 25.0 micrograms/kg/injection, schedule: Q01DX009 (ip), vehicle: alcohol) 97 % of control; (dose: 50.0 micrograms/kg/injection, schedule: Q01DX009 (ip), vehicle: alcohol) 105 % of control; (dose: 100.0 micrograms/kg/injection, schedule: Q01DX009 (ip), vehicle: alcohol) 92 % of control; (dose: 200.0 micrograms/kg/injection, schedule: Q01DX009 (ip), vehicle: alcohol) 92 % of control; (dose: 400.0 micrograms/kg/injection, schedule: Q01DX009 (ip), vehicle: alcohol) 103 % of control.

Regarding `CCCCNc1ccc(S(=O)(=O)c2ccc(NCCCC)c([N+](=O)[O-])c2)cc1[N+](=O)[O-]`, the T/C is, setting by setting: (dose: 1.56 mg/kg/injection, schedule: Q01DX009 (ip), vehicle: DMSO) 89 % of control; (dose: 3.12 mg/kg/injection, schedule: Q01DX009 (ip), vehicle: DMSO) 101 % of control; (dose: 6.25 mg/kg/injection, schedule: Q01DX009 (ip), vehicle: DMSO) 101 % of control; (dose: 25.0 mg/kg/injection, schedule: Q01DX009 (ip), vehicle: DMSO) 102 % of control; (dose: 100.0 mg/kg/injection, schedule: Q01DX005 (ip), vehicle: DMSO) 105 % of control; (dose: 100.0 mg/kg/injection, schedule: Q01DX009 (ip), vehicle: DMSO) 100 % of control. Moreover, the T/C by setting is: (dose: 100.0 mg/kg/injection, schedule: Q04DX002 (ip), vehicle: DMSO) 103 % of control; (dose: 200.0 mg/kg/injection, schedule: Q01DX005 (ip), vehicle: DMSO) 90 % of control; (dose: 200.0 mg/kg/injection, schedule: Q04DX002 (ip), vehicle: DMSO) 111 % of control; (dose: 400.0 mg/kg/injection, schedule: Q01DX005 (ip), vehicle: DMSO) 93 % of control; (dose: 400.0 mg/kg/injection, schedule: Q04DX002 (ip), vehicle: DMSO) 103 % of control.

With `CCCCC(/C=N/N=C(N)N)=N\N=C(N)N`, the T/C under setting [1] was 95 % of control; the T/C under setting [2] is 98 % of control; the T/C (dose: 30.0 mg/kg/injection, schedule: Q01DX Z (ip), vehicle: saline) is 103 % of control; the T/C under setting [3] was 91 % of control; the T/C under setting [4] was 91 % of control; the T/C (dose: 120.0 mg/kg/injection, schedule: Q01DX Z (oral), vehicle: saline) was 94 % of control.

Take `CN(CCNC(=O)c1ccc(Cl)cc1)c1ccccc1`: the T/C was 96 % of control under setting [5], 96 % of control under setting [6] and 86 % of control under setting [7].

`Cn1cnc(N)c1/C(N)=N/O`: the T/C (dose: 6.25 mg/kg/injection, schedule: Q01DX005 (ip), vehicle: saline) was 100 % of control; the T/C (dose: 12.5 mg/kg/injection, schedule: Q01DX005 (ip), vehicle: saline) was 98 % of control; the T/C (dose: 25.0 mg/kg/injection, schedule: Q01DX005 (ip), vehicle: saline) is 107 % of control; the T/C (dose: 50.0 mg/kg/injection, schedule: Q01DX005 (ip), vehicle: saline) is 91 % of control.

Consider `COc1ccc2c(CSc3nc(N)nc4nc[nH]c34)cc(=O)oc2c1`, for which the T/C is 108 % of control (dose: 25.0 mg/kg/injection, schedule: Q04DX002 (ip), vehicle: Klucel (hydroxypropylcellulose) (HPC)); 112 % of control under setting [8]; 120 % of control under setting [5]; 123 % of control under setting [6]; 115 % of control under setting [7].

For `CCOC(=O)C(N)=S`, the T/C was 98 % of control (dose: 100.0 mg/kg/injection, schedule: Q04DX003 (ip), vehicle: saline); 96 % of control (dose: 200.0 mg/kg/injection, schedule: Q04DX003 (ip), vehicle: saline); 88 % of control (dose: 400.0 mg/kg/injection, schedule: Q04DX003 (ip), vehicle: saline).

In the case of `CC(C)(C)NC(=O)NCc1ccc(Cl)c(Cl)c1`, the T/C reads like this: under setting [9], 92 % of control; under setting [10], 93 % of control; under setting [11], 98 % of control.

For the compound `CC(=O)ON1C(=O)c2ccccc2C1=O`, the T/C is, setting by setting: (dose: 50.0 mg/kg/injection, schedule: Q01DX001 (ip), vehicle: saline) 102 % of control; (dose: 100.0 mg/kg/injection, schedule: Q01DX001 (ip), vehicle: saline) 100 % of control; (dose: 200.0 mg/kg/injection, schedule: Q01DX001 (ip), vehicle: saline) 102 % of control.

With `Cn1c(=O)c2ccccc2c2cc(Cl)ccc21`, the T/C runs as follows: under setting [9], 94 % of control; under setting [12], 96 % of control; under setting [13], 96 % of control; (dose: 400.0 mg/kg/injection, schedule: Q04DX003 (ip), vehicle: Klucel (hydroxypropylcellulose) (HPC)) 93 % of control.

Take `Cc1ccc(S(=O)(=O)COS(=O)(=O)C(F)(F)F)cc1`: the T/C is 93 % of control under setting [12] and 93 % of control under setting [13].

Consider `Cc1c2oc3c(C)ccc(C(=O)NCCN4CCN(c5ccccc5)CC4)c3nc-2c(C(=O)NCCN2CCN(c3ccccc3)CC2)c(N)c1=O`, for which the T/C (dose: 100.0 mg/kg/injection, schedule: Q04DX002 (ip), vehicle: saline with Tween-80) was 92 % of control; the T/C (dose: 200.0 mg/kg/injection, schedule: Q04DX002 (ip), vehicle: saline with Tween-80) was 95 % of control; the T/C (dose: 400.0 mg/kg/injection, schedule: Q04DX002 (ip), vehicle: saline with Tween-80) is 95 % of control.

In the case of `CCc1cnccc1C`, the T/C reads like this: (dose: 20.0 mg/kg/injection, schedule: Q04DX003 (ip), vehicle: Klucel (hydroxypropylcellulose) (HPC)) 108 % of control; under setting [14], 102 % of control; (dose: 40.0 mg/kg/injection, schedule: Q04DX003 (ip), vehicle: Klucel (hydroxypropylcellulose) (HPC)) 102 % of control; under setting [15], 107 % of control; (dose: 80.0 mg/kg/injection, schedule: Q04DX003 (ip), vehicle: Klucel (hydroxypropylcellulose) (HPC)) 108 % of control; under setting [9], 111 % of control. Moreover, the T/C under setting [12] was 104 % of control.

In the case of `c1ccc2cc3sccc3cc2c1`, the T/C runs as follows: under setting [9], 96 % of control; under setting [10], 95 % of control; under setting [11], 93 % of control.

Turning to `Nc1nc(Br)c(Br)nc1C(=O)O`, the T/C is 101 % of control and 103 % of control (dose: 12.5 mg/kg/injection, schedule: Q01DX009 (ip), vehicle: Klucel (hydroxypropylcellulose) (HPC)); 97 % of control under setting [14]; 101 % of control (dose: 50.0 mg/kg/injection, schedule: Q01DX001 (ip), vehicle: Klucel (hydroxypropylcellulose) (HPC)); 95 % of control and 91 % of control under setting [15]; 104 % of control under setting [8]; 103 % of control (dose: 50.0 mg/kg/injection, schedule: Q04DX003 (ip), vehicle: Klucel (hydroxypropylcellulose) (HPC)). For the same compound, the T/C runs as follows: (dose: 100.0 mg/kg/injection, schedule: Q01DX001 (ip), vehicle: Klucel (hydroxypropylcellulose) (HPC)) 102 % of control; under setting [5], 100 % of control; under setting [12], 106 % of control; (dose: 200.0 mg/kg/injection, schedule: Q01DX001 (ip), vehicle: Klucel (hydroxypropylcellulose) (HPC)) 96 % of control.

With `CCN=C(N)c1ccc(N=C(N)c2ccc(C(N)=Nc3ccc(C(N)=NCC)cc3)cc2)cc1`, the T/C (dose: 7.5 mg/kg/injection, schedule: Q01DX Z (oral), vehicle: saline) was 98 % of control; the T/C under setting [1] is 258 % of control; the T/C under setting [2] was 100 % of control; the T/C under setting [3] was 102 % of control; the T/C under setting [4] was 102 % of control; the T/C (dose: 125.0 mg/kg/injection, schedule: Q## X010 (oral), vehicle: saline) was 103 % of control. The T/C (dose: 150.0 mg/kg/injection, schedule: Q01DX Z (oral), vehicle: saline) is 89 % of control and the T/C (dose: 250.0 mg/kg/injection, schedule: Q## X010 (oral), vehicle: saline) is 195 % of control.

For `O=C(Nc1ccc(F)cc1)NN1CCOCC1`, the T/C runs as follows: under setting [15], 104 % of control; under setting [9], 90 % of control; under setting [10], 97 % of control.
